Assay results taken from PubChem BioAssay AID743430 (The Scripps Research Institute Molecular Screening Center, 2014).
Activity calls are given as the source filed them. The rule behind the calls is not given here.

Target: Sphingosine 1-phosphate receptor 4 (Homo sapiens) (UniProt O95977)
Test: S1P4 receptor agonist activity, late-stage follow-up, counter-screen for S1PR3 antagonist project, cell-based, FRET, dose response (AID 743430)
Conditions: S1P4-expressing cells, FRET reporter, agonist mode

Sphingosine 1-phosphate receptor 4 (Homo sapiens), sequence (O95977 whole entry, looked up): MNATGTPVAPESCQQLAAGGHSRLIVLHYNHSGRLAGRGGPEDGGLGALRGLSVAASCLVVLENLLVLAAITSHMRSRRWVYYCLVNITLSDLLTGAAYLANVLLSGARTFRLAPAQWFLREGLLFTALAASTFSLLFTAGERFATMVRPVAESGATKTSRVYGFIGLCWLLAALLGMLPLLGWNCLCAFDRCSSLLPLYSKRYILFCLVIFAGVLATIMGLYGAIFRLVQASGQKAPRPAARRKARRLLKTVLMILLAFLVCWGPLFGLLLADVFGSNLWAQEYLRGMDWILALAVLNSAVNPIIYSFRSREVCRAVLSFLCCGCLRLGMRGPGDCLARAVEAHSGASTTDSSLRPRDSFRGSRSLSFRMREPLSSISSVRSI

| SMILES | EC50 |
| --- | --- |
| O=C(NC(c1ccc(Cl)cc1)c1nc(-c2ccccc2)no1)c1cccc(Cl)c1 (configuration not stated) | > 50 µM (inactive) |
| Cc1ccc(C(=O)NC(c2ccccc2)c2nc(-c3ccccc3)no2)cc1 (configuration not stated) | > 50 µM (inactive) |
| O=C(NC(c1ccc(Cl)cc1)c1nc(-c2ccccc2)no1)c1ccc(Cl)c(Cl)c1 (configuration not stated) | > 50 µM (inactive) |
| O=C(NC(c1ccc(Cl)cc1)c1nc(-c2cccc(Cl)c2)no1)c1cccc(Cl)c1 (configuration not stated) | > 50 µM (inactive) |
| O=C(NC(Cc1ccccc1)c1nc(-c2ccccc2)no1)c1cccc(Cl)c1 (configuration not stated) | > 50 µM (inactive) |
| O=C(NC(c1ccc(Cl)cc1)c1nc(-c2ccccn2)no1)c1cccc(Cl)c1 (configuration not stated) | > 50 µM (inactive) |
| O=C(NC(c1nc(-c2ccccc2)no1)C1CCCCC1)c1ccc(Cl)c(Cl)c1 (configuration not stated) | > 50 µM (inactive) |
| O=C(NC(c1ccccc1)c1nc(-c2ccccc2)no1)c1cccc(Cl)n1 (configuration not stated) | > 50 µM (inactive) |
| O=C(NC(c1ccccc1)c1nc(-c2ccccc2)no1)c1cccc(Br)c1 (configuration not stated) | inactive |
| O=C(c1cccc(Cl)c1)N(CCO)C(c1ccc(Cl)c(Cl)c1)c1nc(-c2ccccc2)no1 (configuration not stated) | > 50 µM (inactive) |
| O=C(NC(c1cccc(Cl)c1)c1nc(-c2ccccc2)no1)c1cccc(Cl)c1 (configuration not stated) | > 50 µM (inactive) |
| O=C(NC(c1ccc(Cl)cc1)c1nc(-c2ccccc2)no1)c1ccc(Cl)c(Br)c1 (configuration not stated) | > 50 µM (inactive) |
| O=C(NC(c1ccc(Cl)cc1)c1nc(-c2ccccc2)no1)c1cccc(Br)c1 (configuration not stated) | > 50 µM (inactive) |
| O=C(NC(c1ccc(Cl)c(Cl)c1)c1nc(-c2ccccc2)no1)c1ccc(Cl)c(Cl)c1 (configuration not stated) | > 50 µM (inactive) |
| O=C(NC(c1cccc(Cl)c1)c1nc(-c2ccccc2)no1)c1cc(Cl)cc(Cl)c1 (configuration not stated) | > 50 µM (inactive) |
| O=C(NC(c1cccc(Cl)c1)c1nc(-c2ccccc2)no1)c1ccc(Cl)c(Cl)c1 (configuration not stated) | > 50 µM (inactive) |
| O=C(NC(c1nc(-c2ccccc2)no1)C1CCOCC1)c1ccc(Cl)c(Cl)c1 (configuration not stated) | > 50 µM (inactive) |
| O=C(NC(c1ccc(Cl)c(Cl)c1)c1nc(-c2ccccc2)no1)c1ccccc1 (configuration not stated) | > 50 µM (inactive) |
| Cc1ccc(C(NC(=O)c2cccc(Cl)c2)c2nc(-c3ccccc3)no2)cc1 (configuration not stated) | > 50 µM (inactive) |
| O=C(NC(c1ccc(Br)cc1)c1nc(-c2ccccc2)no1)c1ccc(Cl)c(Cl)c1 (configuration not stated) | > 50 µM (inactive) |
| O=C(NC(c1ccc(Cl)c(Cl)c1)c1nc(-c2ccccc2)no1)c1ccc(Cl)cc1 (configuration not stated) | > 50 µM (inactive) |
| N#Cc1ccc(C(=O)NC(c2ccc(Cl)c(Cl)c2)c2nc(-c3ccccc3)no2)cc1 (configuration not stated) | > 50 µM (inactive) |
| COc1ccc(C(=O)NC(c2ccccc2)c2nc(-c3ccccc3)no2)cc1 (configuration not stated) | > 50 µM (inactive) |
| O=C(NC(c1ccccc1)c1nc(-c2ccccc2)no1)c1cccc(Cl)c1 (configuration not stated) | > 50 µM (inactive) |
| O=C(NC(c1ccc(Cl)c(Cl)c1)c1nc(-c2ccccc2)no1)c1cccc(Cl)c1 (configuration not stated) | > 50 µM (inactive) |
| CCc1ccc(C(NC(=O)c2cccc(Cl)c2)c2nc(-c3ccccc3)no2)cc1 (configuration not stated) | > 50 µM (inactive) |
| O=C(NC(c1ccccc1)c1nc(-c2ccccc2)no1)c1ccc(Cl)cc1 (configuration not stated) | > 50 µM (inactive) |
